Consider four compounds from patent US20240287042A1, “NOVEL COMPOUND HAVING INHIBITORY ACTIVITY AGAINST PENDRIN, AND PHARMACEUTICAL USES THEREOF” (UIF (University Industry Foundation), Yonsei University, priority 2021, published 2024).

Where only a bound is given, the exact number is not on record here.

This assay addresses T1, human wild-type (WT)-pendrin (Homo sapiens, UniProt O43511).
T1 construct: expressed in transfected cells
T1 sequence (O43511 1-780): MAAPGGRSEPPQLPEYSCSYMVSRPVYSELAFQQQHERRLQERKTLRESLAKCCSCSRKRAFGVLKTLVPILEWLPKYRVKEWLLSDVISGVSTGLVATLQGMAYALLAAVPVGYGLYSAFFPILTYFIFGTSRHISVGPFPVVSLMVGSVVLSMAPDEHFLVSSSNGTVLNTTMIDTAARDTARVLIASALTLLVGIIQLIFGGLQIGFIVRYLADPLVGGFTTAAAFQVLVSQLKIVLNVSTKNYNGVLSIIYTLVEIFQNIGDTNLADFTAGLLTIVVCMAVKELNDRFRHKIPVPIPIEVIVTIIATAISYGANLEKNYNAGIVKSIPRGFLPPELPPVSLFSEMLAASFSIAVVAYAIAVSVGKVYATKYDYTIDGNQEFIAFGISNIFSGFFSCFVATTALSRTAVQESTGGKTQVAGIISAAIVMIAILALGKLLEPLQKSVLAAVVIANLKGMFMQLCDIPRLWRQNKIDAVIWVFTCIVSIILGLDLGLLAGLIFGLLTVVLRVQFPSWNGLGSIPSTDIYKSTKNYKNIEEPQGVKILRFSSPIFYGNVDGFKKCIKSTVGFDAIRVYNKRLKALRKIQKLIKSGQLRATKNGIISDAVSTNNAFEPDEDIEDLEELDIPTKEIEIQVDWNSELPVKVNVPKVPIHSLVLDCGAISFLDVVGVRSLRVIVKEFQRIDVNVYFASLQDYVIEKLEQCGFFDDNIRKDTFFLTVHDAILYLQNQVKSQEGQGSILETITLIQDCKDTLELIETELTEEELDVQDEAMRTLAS
Briefly: Pendrin Cl−/I− exchange inhibitory activity, YFP fluorescence in CHO-K1 cells. It counts as cell-based. The following applies: CHO-K1; for inhibition at 1 µM: compound concentration 1 μM; for inhibition at 3 µM: compound concentration 3 μM; for inhibition at 10 µM: compound concentration 10 μM; for inhibition at 30 µM: compound concentration 30 μM; for inhibition at 100 µM: compound concentration 100 μM. Summed up:
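CHO-K1 cells stably co-expressing human WT pendrin and YFP-F46L/H148Q/I152L were preincubated with compound (1–100 µM, or 50 µM single dose) for 10 min at 37°C in HEPES buffer, pH 7.4. NaI solution was then injected and YFP quenching was recorded; the initial iodide influx rate came from the initial fluorescence slope.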

`Cc1cccc(C)c1N1CCN(C(=O)Cc2c(C(=O)O)[nH]c3ccc(Cl)cc23)CC1` [YPI-A4783, 5-Chloro-3-(2-(4-(2,6-dimethylphenyl)piperazin-1-yl)-2-oxoethyl)-1H-indole-2-carboxylic acid] yielded an inhibition at 1 µM of 39.9%, an inhibition at 3 µM of 74.5%, an inhibition at 10 µM of 100% and an inhibition at 30 µM of 100%. The compound also registered an inhibition at 100 µM of 100%.

Consider `CC(=O)c1ccc(N2CCN(C(=O)Cc3c(C(=O)O)[nH]c4ccc(Cl)cc34)CC2)cc1` [YPI-A4920, 3-(2-(4-(4-Acetylphenyl)piperazin-1-yl)-2-oxoethyl)-5-chloro-1H-indole-2-carboxylic acid], for which the inhibition at 1 µM was less than 20%, the inhibition at 3 µM was less than 20%, the inhibition at 10 µM is less than 20% and the inhibition at 30 µM is less than 20%. This compound yielded an inhibition at 100 µM of less than 20%.

As for `CCOc1ccc(N2CCN(C(=O)Cc3c(C(=O)O)[nH]c4ccc(Cl)cc34)CC2)cc1` [YPI-A4921, 5-Chloro-3-(2-(4-(4-ethoxyphenyl)piperazin-1-yl)-2-oxoethyl)-1H-indole-2-carboxylic acid], the inhibition at 1 µM is less than 20%, the inhibition at 3 µM was less than 20%, the inhibition at 10 µM is less than 20% and at 30 µM the inhibition was 72.5%. In addition, testing at 100 µM gave an inhibition of 73.8%.

For `O=C(O)c1[nH]c2ccc(Cl)cc2c1CC(=O)N1CCN(c2ccc(Cl)cc2Cl)CC1` [YPI-A4887, 5-Chloro-3-(2-(4-(2,4-dichlorophenyl)piperazin-1-yl)-2-oxoethyl)-1H-indole-2-carboxylic acid], the inhibition at 1 µM was less than 20%, 3 µM produced 50.8% inhibition, testing at 10 µM gave an inhibition of 89.3% and at 30 µM the inhibition was 89.5%. Besides, the inhibition at 100 µM turned out to be 89.9%.
